Assay results reported in patent US20230413824A1, “AGROCHEMICAL COMPOSITION COMPRISING 3-SUBSTITUTED PHENYLAMIDINE COMPOUNDS AND USE THEREOF” (PI INDUSTRIES LIMITED, priority 2020, published 2023).
Like-named read-outs stand apart in the source and are kept apart here.

How the values were obtained:
Format in all cases: in vivo
Pyricularia oryzae = experiment: whole plant or invertebrate; settings: Pyricularia oryzae, read-out: Observed Efficacy
Botrytis cinerea = Botrytis cinerea test in tomato (preventive, glasshouse); settings: single compound, read-out: Observed Efficacy (%); for pest or weed control at 1 ppm: Conc. 1 ppm; for pest or weed control at 5 ppm: Conc. 5 ppm; for pest or weed control at 20 ppm: Conc. 20 ppm; for pest or weed control at 0.05 ppm: Conc. 0.05 ppm; for pest or weed control at 0.1 ppm: Conc. 0.1 ppm
Phakopsora pachyrhizi = Phakopsora pachyrhizi test in soybean (preventive, glasshouse); settings: single compound; for pest or weed control at 0.0001 ppm / pest or weed control at 0.001 ppm / pest or weed control at 0.01 ppm / pest or weed control at 0.05 ppm / pest or weed control at 0.1 ppm: Phakopsora pachyrhizi, read-out: Observed Efficacy (%)
Alternaria solani = Alternaria solani test in tomato (preventive, glasshouse); settings: for pest or weed control at 1 ppm / pest or weed control at 5 ppm / pest or weed control at 20 ppm / pest or weed control at 0.05 ppm / pest or weed control at 0.1 ppm: Alternaria solani; for pest or weed control at 1 ppm: Conc. 1 ppm; for pest or weed control at 5 ppm: Conc. 5 ppm; for pest or weed control at 20 ppm: Conc. 20 ppm
Erysiphe cichoracearum = Erysiphe cichoracearum test in cucumber (preventive, glasshouse); settings: single compound
Septoria nodorum = experiment: Parastagonospora nodorum/Septoria nodorum/Stagnospora nodorum test in wheat (preventive, glasshouse); settings: Parastagonospora nodorum, single compound, read-out: Observed Efficacy (%)
Procedure: The single compounds or compound combinations were dissolved in 2% DMSO/Acetone and then mixed with water containing emulsifier to a calibrated spray volume of 50 mL. The spray solutions were poured into spray bottles for further applications.
To test the preventive activity of compounds, healthy young wheat plants, raised in the greenhouse, were sprayed with the single compound or mixture preparation at the stated application rates inside the spray cabinets using hollow cone nozzles. One day after treatment, the plants were inoculated with a suspension containing 2.8×10^6 Stagnospora nodorum inoculum. The inoculated plants were then kept in a greenhouse chamber at 22-25° C. temperature and 90-100% relative humidity for disease expression.
A visual assessment of the performance of the compounds and respective compound combinations was carried out by rating the disease severity (0-100% scale) on treated plants 3, 7 and 10 days after application. Efficacy (% control) of the compounds was calculated by comparing the disease rating in the treatment with the one of the untreated control. The compounds were also assessed for their plant compatibility by recording symptoms like necrosis, chlorosis & stunting. The results are shown for the compound of formula (I-1) to (I-5) in Table E1-E5.

[1] = Botrytis cinerea, preventive spray on tomato, % control vs untreated
[2] = single compound, preventive spray, read-out: Observed Efficacy
[3] = Golovinomyces cichoracearum, cucumber, preventive, read-out: Observed Efficacy (%)
[4] = Conc. 0.05 ppm, soybean, preventive, Table D4
[5] = Conc. 0.05 ppm, soybean, preventive, Table D5
[6] = Conc. 0.1 ppm, soybean, preventive, Table D4
[7] = Conc. 0.1 ppm, soybean, preventive, Table D5
[8] = single compound, 0.05 ppm, preventive spray, read-out: Observed Efficacy (%)
[9] = single compound, 0.1 ppm, preventive spray, read-out: Observed Efficacy (%)
[10] = Table B4, single compound, Conc. 0.1 ppm, preventive
[11] = single compound, 0.05 ppm, preventive
[12] = single compound, 0.1 ppm, preventive
[13] = Golovinomyces cichoracearum, 0.05 ppm, cucumber, preventive, read-out: Observed Efficacy (%)
[14] = Golovinomyces cichoracearum, 0.1 ppm, cucumber, preventive, read-out: Observed Efficacy (%)
[15] = 0.05 ppm, preventive spray on cucumber
[16] = 0.1 ppm, preventive spray on cucumber
[17] = Table F4, Botrytis cinerea in tomato, preventive
[18] = Table B4, single compound, preventive, read-out: Observed Efficacy (%)
[19] = Golovinomyces cichoracearum, preventive spray on cucumber, read-out: Observed Efficacy (%)

For `CCN(C)C=Nc1cc(Cl)cc(Cc2cccc(C)c2)c1C` [Compound (I-1), N′-(5-chloro-2-methyl-3-(3-methylbenzyl)phenyl)-N-ethyl-N-methylformimidamide], which pest or weed control at 1 ppm (Pyricularia oryzae) is on record?
Its pest or weed control at 1 ppm is 17%.

And the pest or weed control at 5 ppm (Pyricularia oryzae)?
Its pest or weed control at 5 ppm is 27%.

What about the pest or weed control at 20 ppm (Pyricularia oryzae) of the same compound?
The pest or weed control at 20 ppm was 37%.

And the pest or weed control at 1 ppm (Botrytis cinerea; [1])?
Its pest or weed control at 1 ppm is 20%.

What about the pest or weed control at 5 ppm (Botrytis cinerea; [1]) of the same compound?
Its pest or weed control at 5 ppm is 27%.

What about the pest or weed control at 20 ppm (Botrytis cinerea; [1]) of the same compound?
Its pest or weed control at 20 ppm is 47%.

What about the pest or weed control at 0.0001 ppm (Phakopsora pachyrhizi; 0.0001 ppm, preventive spray on soybean) of the same compound?
The pest or weed control at 0.0001 ppm was 40%.

And the pest or weed control at 0.001 ppm (Phakopsora pachyrhizi; 0.001 ppm, preventive spray on soybean)?
Its pest or weed control at 0.001 ppm is 50%.

What about the pest or weed control at 0.01 ppm (Phakopsora pachyrhizi; 0.01 ppm, preventive spray on soybean) of the same compound?
Its pest or weed control at 0.01 ppm is 62%.

What about the pest or weed control at 1 ppm (Alternaria solani; [2]) of the same compound?
The pest or weed control at 1 ppm was 20%.

What about the pest or weed control at 5 ppm (Alternaria solani; [2]) of the same compound?
The pest or weed control at 5 ppm was 27%.

And the pest or weed control at 20 ppm (Alternaria solani; [2])?
Its pest or weed control at 20 ppm is 40%.

And the pest or weed control at 1 ppm (Erysiphe cichoracearum; [3])?
The pest or weed control at 1 ppm was 13%.

And the pest or weed control at 5 ppm (Erysiphe cichoracearum; [3])?
Its pest or weed control at 5 ppm is 33%.

What about the pest or weed control at 20 ppm (Erysiphe cichoracearum; Golovinomyces cichoracearum, 20 ppm, cucumber, preventive, read-out: Observed Efficacy (%)) of the same compound?
Its pest or weed control at 20 ppm is 57%.

And the pest or weed control at 1 ppm (Septoria nodorum)?
Its pest or weed control at 1 ppm is 17%.

And the pest or weed control at 5 ppm (Septoria nodorum)?
Its pest or weed control at 5 ppm is 20%.

What about the pest or weed control at 20 ppm (Septoria nodorum) of the same compound?
The pest or weed control at 20 ppm was 43%.

Which pest or weed control at 0.05 ppm (Pyricularia oryzae) does the source give for `N#Cc1sc2c(=O)c3ccccc3c(=O)c=2sc1C#N` [Dithianon, dithianon] here?
The pest or weed control at 0.05 ppm was 34%.

What about the pest or weed control at 0.1 ppm (Pyricularia oryzae) of the same compound?
Its pest or weed control at 0.1 ppm is 42%.

And the pest or weed control at 0.05 ppm (Botrytis cinerea; [1])?
Its pest or weed control at 0.05 ppm is 38%.

What about the pest or weed control at 0.1 ppm (Botrytis cinerea; [1]) of the same compound?
Its pest or weed control at 0.1 ppm is 45%.

What about the pest or weed control at 0.05 ppm (Phakopsora pachyrhizi; preventive spray on soybean) of the same compound?
Its pest or weed control at 0.05 ppm is 15%.

And the pest or weed control at 0.1 ppm (Phakopsora pachyrhizi; preventive spray on soybean)?
The pest or weed control at 0.1 ppm was 24%.

And the “Observed Efficacy (%)” value (Phakopsora pachyrhizi; [4])?
Its value is 15%.

And the “Observed Efficacy (%)” value (Phakopsora pachyrhizi; [5])?
Its value is 15%.

What about the “Observed Efficacy (%)” value (Phakopsora pachyrhizi; [6]) of the same compound?
The value was 24%.

And the “Observed Efficacy (%)” value (Phakopsora pachyrhizi; [7])?
The value was 24%.

What about the pest or weed control at 0.05 ppm (Alternaria solani; [8]) of the same compound?
Its pest or weed control at 0.05 ppm is 21%.

And the pest or weed control at 0.1 ppm (Alternaria solani; [9])?
Its pest or weed control at 0.1 ppm is 26%.

What about the “Observed Efficacy (%)” value (Alternaria solani; Table B4, single compound, Conc. 0.05 ppm, preventive) of the same compound?
The value was 21%.

What about the “Observed Efficacy (%)” value (Alternaria solani; [10]) of the same compound?
Its value is 26%.

What about the “Observed Efficacy (%)” value (Alternaria solani; [11]) of the same compound?
Its value is 21%.

What about the “Observed Efficacy (%)” value (Alternaria solani; [12]) of the same compound?
Its value is 26%.

And the pest or weed control at 0.05 ppm (Erysiphe cichoracearum; [13])?
The pest or weed control at 0.05 ppm was 11%.

And the pest or weed control at 0.1 ppm (Erysiphe cichoracearum; [14])?
The pest or weed control at 0.1 ppm was 18%.

What about the “Observed Efficacy (%)” value (Erysiphe cichoracearum; [15]) of the same compound?
Its value is 11%.

What about the “Observed Efficacy (%)” value (Erysiphe cichoracearum; [16]) of the same compound?
The value was 18%.

And the pest or weed control at 0.05 ppm (Septoria nodorum)?
Its pest or weed control at 0.05 ppm is 11%.

What about the pest or weed control at 0.1 ppm (Septoria nodorum) of the same compound?
Its pest or weed control at 0.1 ppm is 16%.

How did the pest or weed control at 0.05 ppm (Pyricularia oryzae) turn out when `O=C1c2ccccc2C(=O)N1SC(Cl)(Cl)Cl` [Folpet, folpet] was run?
Its pest or weed control at 0.05 ppm is 34%.

And the pest or weed control at 0.1 ppm (Pyricularia oryzae)?
Its pest or weed control at 0.1 ppm is 39%.

And the pest or weed control at 0.05 ppm (Botrytis cinerea; [1])?
The pest or weed control at 0.05 ppm was 24%.

What about the pest or weed control at 0.1 ppm (Botrytis cinerea; [1]) of the same compound?
The pest or weed control at 0.1 ppm was 38%.

And the pest or weed control at 0.05 ppm (Phakopsora pachyrhizi; preventive spray on soybean)?
The pest or weed control at 0.05 ppm was 5%.

And the pest or weed control at 0.1 ppm (Phakopsora pachyrhizi; preventive spray on soybean)?
The pest or weed control at 0.1 ppm was 12%.

And the “Observed Efficacy (%)” value (Phakopsora pachyrhizi; [4])?
Its value is 5%.

And the “Observed Efficacy (%)” value (Phakopsora pachyrhizi; [5])?
Its value is 5%.

And the “Observed Efficacy (%)” value (Phakopsora pachyrhizi; [6])?
Its value is 12%.

What about the “Observed Efficacy (%)” value (Phakopsora pachyrhizi; [7]) of the same compound?
The value was 12%.

And the pest or weed control at 0.05 ppm (Alternaria solani; [8])?
The pest or weed control at 0.05 ppm was 12%.

What about the pest or weed control at 0.1 ppm (Alternaria solani; [9]) of the same compound?
Its pest or weed control at 0.1 ppm is 16%.

What about the pest or weed control at 0.05 ppm (Alternaria solani; single compound, Conc. 0.05 ppm, preventive spray, read-out: Observed Efficacy) of the same compound?
Its pest or weed control at 0.05 ppm is 12%.

And the pest or weed control at 0.1 ppm (Alternaria solani; single compound, Conc. 0.1 ppm, preventive spray, read-out: Observed Efficacy)?
Its pest or weed control at 0.1 ppm is 16%.

What about the “Observed Efficacy (%)” value (Alternaria solani; Table B3, single compound, Conc. 0.05 ppm, preventive) of the same compound?
The value was 12%.

What about the “Observed Efficacy (%)” value (Alternaria solani; Table B3, single compound, Conc. 0.1 ppm, preventive) of the same compound?
Its value is 16%.

And the “Observed Efficacy (%)” value (Alternaria solani; [10])?
Its value is 16%.

And the “Observed Efficacy (%)” value (Alternaria solani; [11])?
Its value is 12%.

And the “Observed Efficacy (%)” value (Alternaria solani; [12])?
The value was 16%.

What about the pest or weed control at 0.05 ppm (Erysiphe cichoracearum; [13]) of the same compound?
The pest or weed control at 0.05 ppm was 24%.

And the pest or weed control at 0.1 ppm (Erysiphe cichoracearum; [14])?
Its pest or weed control at 0.1 ppm is 32%.

What about the “Observed Efficacy (%)” value (Erysiphe cichoracearum; [15]) of the same compound?
Its value is 24%.

And the “Observed Efficacy (%)” value (Erysiphe cichoracearum; [16])?
The value was 32%.

What about the pest or weed control at 0.05 ppm (Septoria nodorum) of the same compound?
The pest or weed control at 0.05 ppm was 16%.

And the pest or weed control at 0.1 ppm (Septoria nodorum)?
Its pest or weed control at 0.1 ppm is 21%.

Which results are given for `CCN(C)C=Nc1cc(C)cc(Cc2cccc(F)c2)c1C` [Compound (I-4), N-ethyl-N′-(3-(3-fluorobenzyl)-2,5-dimethylphenyl)-N-methylformimidamide]?
pest or weed control at 1 ppm (Pyricularia oryzae): 17%; pest or weed control at 5 ppm (Pyricularia oryzae): 23%; pest or weed control at 20 ppm (Pyricularia oryzae): 33%; pest or weed control at 1 ppm (Botrytis cinerea; [17]): 10%; pest or weed control at 5 ppm (Botrytis cinerea; [17]): 17%; pest or weed control at 20 ppm (Botrytis cinerea; [17]): 23%; pest or weed control at 0.0001 ppm (Phakopsora pachyrhizi; Conc. 0.0001 ppm, soybean, preventive, Table D4): 43%; pest or weed control at 0.001 ppm (Phakopsora pachyrhizi; Conc. 0.001 ppm, soybean, preventive, Table D4): 47%; pest or weed control at 0.01 ppm (Phakopsora pachyrhizi; Conc. 0.01 ppm, soybean, preventive, Table D4): 59%; pest or weed control at 1 ppm (Alternaria solani; [18]): 20%; pest or weed control at 5 ppm (Alternaria solani; [18]): 27%; pest or weed control at 20 ppm (Alternaria solani; [18]): 37%; pest or weed control at 1 ppm (Erysiphe cichoracearum; [19]): 33%; pest or weed control at 5 ppm (Erysiphe cichoracearum; [19]): 63%; pest or weed control at 1 ppm (Septoria nodorum): 20%; pest or weed control at 5 ppm (Septoria nodorum): 23%; pest or weed control at 20 ppm (Septoria nodorum): 27%
